Converted amounts (≈) assume the structure as drawn.
Columns and labels:
Type in all cases: cell-based
C. pylori CPY 00111 = assay: MIC, agar-plate dilution method, test strain D; conditions: Helicobacter pylori, CPY00111, 72 h, Brucella agar, 37° C., 3 days
Experimental: (§1) The minimum inhibitory concentration (MIC) of each compound was determined by the agar-plate dilution method based on the standard method advocated by Japan Society of Chemotherapy [cf: Chemotherapy, Jan. '81, p. 76]. The volume of agar medium per plate was 20 ml. Each of the test compounds was dissolved in dimethylsulfoxide at a concentration of 80 mg/ml or 40 mg/ml, and diluted 10 times with sterile distilled water. Furthermore, the aqueous solution of 8 mg/ml or 4 mg/ml was diluted serially 2-fold with sterile distilled water. To 2 ml of the diluted solution was added 18 ml of Brucella agar (BBL Microbiology Systems, Becton Dickinson and Co., Cockeysville, Md. 21030) containing 7% defibrinated horse blood (manufactured by Nippon Bio-supp. Center) and mixed well. Test strains frozen at -80° C. in Brucella broth (BBL) containing 10% horse serum were thawed and inoculated on a Brucella agar slant medium containing 7% defibrinated horse blood. The medium was incubated anaerobically at 37° C. for 3 days in a jar containing a piece of sponge sufficiently impregnated with water and Campy Pak™ (BBL). The organisms grown on the slant medium were collected and suspended in a Brucella broth to correspond to the turbidity of about 10^8 CFU/ml of common bacteria. One platinum loop of inoculum was streaked on the medium plates for determination. The plates were incubated under the same conditions as described above.

C. pylori NCTC 11916 = assay: MIC, agar-plate dilution method, test strain A; conditions: Helicobacter pylori, NCTC11916, 72 h, Brucella agar, 37° C., 3 days
Experimental: as §1

C. pylori PCL 56 = assay: MIC, agar-plate dilution method, test strain C; conditions: Helicobacter pylori, PCL56, 72 h, Brucella agar, 37° C., 3 days
Experimental: as §1, with “above. […] The results are shown in Table 2 and Table 3. | C: C. pylori PCL 56” for “above.”

S. pneumoniae Type 1 = assay: MIC, standard agar-plate dilution method, aerobic common bacteria; conditions: Streptococcus pneumoniae, TYPE1
Description: (§2) Antibacterial activities of some compounds of the present invention against aerobic common bacteria were examined.

S. pyogenes S-8 = assay: as above; conditions: Streptococcus pyogenes, S8
Description: as §2

M. morganii IFO 3168 = assay: as above; conditions: Morganella morganii, IFO3168
Description: as §2

S. mitis America = assay: as above; conditions: Streptococcus mitis
Description: as §2

S. aureus 308 A-1 = assay: as above; conditions: Staphylococcus aureus, 308A1
Description: as §2

S. aureus N-241 = assay: as above; conditions: Staphylococcus aureus, N241
Description: as §2

E. coli T 7 = assay: as above; conditions: Escherichia coli, T7
Description: as §2

[1] = test system: A. calcoaceticus IFO 13006; assay: as above; conditions: Acinetobacter calcoaceticus, IFO13006
Description: as §2

E. coli 0-111 = assay: as above; conditions: Escherichia coli, 0111
Description: as §2

P. aeruginosa U 31 = assay: as above; conditions: Pseudomonas aeruginosa, U31
Description: as §2

P. vulgaris IFO 3988 = assay: as above; conditions: Proteus vulgaris, IFO3988
Description: as §2

P. aeruginosa P 9 = assay: as above; conditions: Pseudomonas aeruginosa, P9
Description: as §2

S. marcecens B 315 = assay: as above
Description: as §2

S. pyogenes E-14 = assay: as above; conditions: Streptococcus pyogenes, E14
Description: as §2

P. aeruginosa IFO 3455 = assay: as above; conditions: Pseudomonas aeruginosa, IFO3455
Description: as §2

S. aureus FDA 209P = assay: as above; conditions: Staphylococcus aureus, FDA209P
Description: as §2

S. aureus J-108 = assay: as above; conditions: Staphylococcus aureus, J108
Description: as §2

E. cloacae IFO 12937 = assay: as above; conditions: Enterobacter cloacae, IFO12937
Description: as §2

S. aureus 1840 = assay: as above; conditions: Staphylococcus aureus
Description: as §2

P. aeruginosa B 184 = assay: as above; conditions: Pseudomonas aeruginosa, B184
Description: as §2

E. cloacae TN 583 = assay: as above; conditions: Enterobacter cloacae, TN583
Description: as §2

P. aeruginosa GN 3407 = assay: as above; conditions: Pseudomonas aeruginosa, GN3407
Description: as §2

K. oxytoca TN 1711 = assay: as above; conditions: Klebsiella oxytoca, TN1711
Description: as §2

aerobic bacteria = assay: Antibacterial action against aerobic bacteria (Table 4, summary in words); conditions: summary of Table 4
Description: as §2

SMILES	MIC (C. pylori CPY 00111) [µg/mL]	MIC (C. pylori NCTC 11916) [µg/mL]	MIC (C. pylori PCL 56) [µg/mL]	MIC (S. pneumoniae Type 1) [µg/mL]	MIC (S. pyogenes S-8) [µg/mL]	MIC (M. morganii IFO 3168) [µg/mL]	MIC (S. mitis America) [µg/mL]	MIC (S. aureus 308 A-1) [µg/mL]	MIC (S. aureus N-241) [µg/mL]	MIC (E. coli T 7) [µg/mL]	MIC [1] [µg/mL]	MIC (E. coli 0-111) [µg/mL]	MIC (P. aeruginosa U 31) [µg/mL]	MIC (P. vulgaris IFO 3988) [µg/mL]	MIC (P. aeruginosa P 9) [µg/mL]	MIC (S. marcecens B 315) [µg/mL]	MIC (S. pyogenes E-14) [µg/mL]	MIC (P. aeruginosa IFO 3455) [µg/mL]	MIC (S. aureus FDA 209P) [µg/mL]	MIC (S. aureus J-108) [µg/mL]	further results
Cc1c(OCC(F)(F)F)ccnc1C[S+]([O-])c1nc2ccccc2[nH]1 (stereo not drawn) [Compound 1]	6.25 (≈ 16.9 µM)	12.5 (≈ 33.8 µM)	6.25 (≈ 16.9 µM)	> 400	> 400	> 400	> 400	> 400	> 400	> 400	> 400	> 400	> 400	> 400	> 400	> 400	> 400	> 400	> 400	> 400	MIC (E. cloacae IFO 12937): > 400 µg/mL; MIC (S. aureus 1840): > 400 µg/mL; MIC (P. aeruginosa B 184): > 400 µg/mL; MIC (E. cloacae TN 583): > 400 µg/mL; MIC (P. aeruginosa GN 3407): > 400 µg/mL; MIC (K. oxytoca TN 1711): > 400 µg/mL; antibacterial action against the aerobic bacteria (aerobic bacteria): did not possess at all antibacterial action
COc1ccc2[nH]c([S+]([O-])Cc3ncc(C)c(OC)c3C)nc2c1 (stereo not drawn) [Compound 2]	12.5 (≈ 36.2 µM)	25 (≈ 72.4 µM)	12.5 (≈ 36.2 µM)	> 400	> 400	> 400	> 400	> 400	> 400	40 (≈ 116 µM)	> 400	> 400	> 400	> 400	> 400	> 400	> 400	> 400	> 400	> 400	MIC (E. cloacae IFO 12937): > 400 µg/mL; MIC (S. aureus 1840): > 400 µg/mL; MIC (P. aeruginosa B 184): > 400 µg/mL; MIC (E. cloacae TN 583): > 400 µg/mL; MIC (P. aeruginosa GN 3407): > 400 µg/mL; MIC (K. oxytoca TN 1711): > 400 µg/mL; antibacterial action against the aerobic bacteria (aerobic bacteria): did not possess at all antibacterial action
Cc1c(OCC(F)(F)F)ccnc1CSc1nc2ccccc2[nH]1 [Compound 6]	3.13 (≈ 8.86 µM)	6.25 (≈ 17.7 µM)	6.25 (≈ 17.7 µM)	> 400	> 400	> 400	> 400	> 400	> 400	> 400	> 400	40 (≈ 113 µM)	> 400	> 400	> 400	> 400	> 400	> 400	> 400	> 400	MIC (E. cloacae IFO 12937): > 400 µg/mL; MIC (S. aureus 1840): > 400 µg/mL; MIC (P. aeruginosa B 184): > 400 µg/mL; MIC (E. cloacae TN 583): > 400 µg/mL; MIC (P. aeruginosa GN 3407): > 400 µg/mL; MIC (K. oxytoca TN 1711): > 400 µg/mL; antibacterial action against the aerobic bacteria (aerobic bacteria): did not possess at all antibacterial action

From patent US5013743A, “Selective antibacterial agent against campytobacter” (Takeda Chemical Industries, Ltd., priority 1989, dated 1991)
